# Reference: patent US20160251402A1, “MICROPEPTIDES AND USE OF SAME FOR MODULATING GENE EXPRESSION” (UNIVERSITE PAUL SABATIER TOULOUSE III, priority 2013, published 2016)
# Test system: HsmiR155
# Test: Relative expression of Pre-miR155 in transfected HeLa cells
# Assay type: cell-based, Homo sapiens
# Conditions: HeLa cells transfected to overexpress HsmiPEP155
# Description: The DNA fragments of interest (HsmiPEP155 and the mutated miPEP) were synthesized or amplified by PCR using specific primers, and then cloned using the enzymes XhoI and NotI into a pUAS plasmid permitting their overexpression by means of the GAL4 transcription factor, the expression of which is controlled by a constitutive strong promoter.
# The different constructs were produced either by PCR amplification on genomic DNA of HeLa cells, or by RT-PCR on total RNAs of L428 human cells. The amplified PCR fragments are digested with the HindIII/EcoRI restriction enzymes and then cloned into the vector pcDNA3.1. The DH5α strain of Escherichia coli is electroporated and then cultured on a solid medium (2YT+agar+ampicillin). The plasmid DNA from different clones is then prepared and sequenced for verification. The constructs are then prepared using the QIAfilter Plasmid Midi kit (QIAGEN) and stored at −20° C.
# The HeLa cells (established tumour line, ATCC CCL-2.2) are cultured in a 6-well plate in complete medium [(DMEM (1x)+Glutamax+4.5 g/L glucose without pyruvate+1x penicillin/streptomycin+1 mM Na-pyruvate+10% calf serum] and placed in an incubator at 37° C. and 5% CO2.
# The cells are transfected when they are at 50% confluence. […]
# 10-15 μg of total RNAs is then analysed by Northern blot on 15% acrylamide gel [solution of acrylamide/40% bis-acrylamide, ratio 19:1], 7M urea in TBE 1x. […]
sequence,measurement,value
MEMALMVAQTRKGKSVV (listed as Homo sapiens) [HsmiPEP155],relative expression of Pre-miR155,increases the expression of HsmiR155
